In US7951829B2, “Benzimidazole modulators of VR1” (Janssen Pharmaceutica NV, priority 2006, dated 2011):

Molecular target: T1, hVR1 (Homo sapiens, UniProt Q8NER1)
T1 construct: expressed in transfected cells; host or cells: HEK293
Assay: Human VR1 (hVR1) Functional Assay (FLIPR intracellular calcium, capsaicin challenge)
Assay type: cell-based
Details: capsaicin 0.030 μM, HEK293 cells expressing hVR1; for inhibition at 1 µM: test concentration 1 μM

T1 sequence (Q8NER1 whole entry): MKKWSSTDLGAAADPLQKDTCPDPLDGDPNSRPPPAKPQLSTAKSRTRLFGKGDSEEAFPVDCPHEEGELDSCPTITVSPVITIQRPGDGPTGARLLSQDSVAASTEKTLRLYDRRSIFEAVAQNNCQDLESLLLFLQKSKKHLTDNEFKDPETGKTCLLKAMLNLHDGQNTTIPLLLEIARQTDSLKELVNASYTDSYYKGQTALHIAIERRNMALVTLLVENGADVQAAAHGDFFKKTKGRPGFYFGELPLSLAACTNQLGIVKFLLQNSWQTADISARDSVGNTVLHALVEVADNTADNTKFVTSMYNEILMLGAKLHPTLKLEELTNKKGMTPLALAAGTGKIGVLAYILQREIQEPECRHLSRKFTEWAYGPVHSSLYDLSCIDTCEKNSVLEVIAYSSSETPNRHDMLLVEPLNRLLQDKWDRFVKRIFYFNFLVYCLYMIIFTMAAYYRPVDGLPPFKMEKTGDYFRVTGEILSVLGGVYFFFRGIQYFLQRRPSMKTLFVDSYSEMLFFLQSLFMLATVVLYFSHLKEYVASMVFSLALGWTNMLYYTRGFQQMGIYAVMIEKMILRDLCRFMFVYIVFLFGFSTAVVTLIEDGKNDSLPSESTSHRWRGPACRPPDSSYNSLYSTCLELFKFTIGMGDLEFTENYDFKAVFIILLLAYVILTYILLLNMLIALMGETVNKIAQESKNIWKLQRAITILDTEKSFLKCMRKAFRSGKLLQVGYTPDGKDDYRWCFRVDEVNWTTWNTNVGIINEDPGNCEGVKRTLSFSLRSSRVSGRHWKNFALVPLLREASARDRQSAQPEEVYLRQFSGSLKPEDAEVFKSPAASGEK

| Compound | inhibition at 1 µM | IC50 |
| --- | --- | --- |
| CC(=O)Nc1ccccc1-c1ccc2[nH]c(/C=C/c3ccc(S(=O)(=O)C(F)(F)F)cc3)nc2c1 [Cpd 43, (E)-N-(2-{2-[2-(4-trifluoromethanesulfonyl-phenyl)-vinyl]-1H-benzimidazol-5-yl}-phenyl)-acetamide] | 58% | 890 nM |
| O=C(CO)c1ccccc1-c1ccc2[nH]c(/C=C/c3ccc(C(F)(F)F)cc3)nc2c1 [Cpd 311, (E)-2-hydroxy-1-(2-{2-[2-(4-trifluoromethyl-phenyl)-vinyl]-1H-benzimidazol-5-yl}-phenyl)-ethanone] | 99% | 54 nM |
| COc1ccc(C2CC2c2nc3cc(-c4ccccc4C(C)(C)O)ccc3[nH]2)cc1 (stereo not shown) [Cpd 494, 2-(2-{2-[2-(4-methoxy-phenyl)-cyclopropyl]-1H-benzimidazol-5-yl}-phenyl)-propan-2-ol] | 93% | 52 nM |
| CS(=O)(=O)Nc1ccccc1-c1ccc2[nH]c(/C=C/c3ccc(S(C)(=O)=O)cc3)nc2c1 [Cpd 83, (E)-N-(2-{2-[2-(4-methanesulfonyl-phenyl)-vinyl]-1H-benzimidazol-5-yl}-phenyl)-methanesulfonamide] | – | > 500 nM |
| CC(C)(C)c1ccc(CCCc2nc3cc(-c4ccccc4O)ccc3[nH]2)cc1 [Cpd 29, 2-{2-[3-(4-tert-butyl-phenyl)-propyl]-1H-benzimidazol-5-yl}-phenol] | 6% | – |
| CNS(=O)(=O)c1ccccc1-c1ccc2[nH]c(/C=C/c3ccc(Cl)cc3F)nc2c1 [Cpd 339, (E)-2-{2-[2-(4-chloro-2-fluoro-phenyl)-vinyl]-1H-benzimidazol-5-yl}-N-methyl-benzenesulfonamide] | 99% | 27 nM |
| CC(=O)Nc1ccccc1-c1cc2nc(/C=C/c3ccc(C(F)(F)F)cc3)[nH]c2cc1F [Cpd 64, (E)-N-(2-{6-fluoro-2-[2-(4-trifluoromethyl-phenyl)-vinyl]-1H-benzimidazol-5-yl}-phenyl)-acetamide] | 41% | – |
| Cc1ccc(/C=C/c2nc3cc(-c4ccccc4S(N)(=O)=O)ccc3[nH]2)cc1 [Cpd 430, (E)-2-[2-(2-p-tolyl-vinyl)-1H-benzimidazol-5-yl]-benzenesulfonamide] | 100% | 9 nM |
| CC(C)(O)c1ccccc1-c1ccc2[nH]c(C3CC3c3ccc(OC(F)(F)F)cc3)nc2c1 (stereo not shown) [Cpd 497, 2-(2-{2-[2-(4-trifluoromethoxy-phenyl)-cyclopropyl]-1H-benzimidazol-5-yl}-phenyl)-propan-2-ol] | 94% | 39 nM |
| NC(=O)c1ccccc1-c1ccc2[nH]c(/C=C/c3ccc(C(F)(F)F)cc3)nc2c1 [Cpd 13, (E)-2-{2-[2-(4-trifluoromethyl-phenyl)-vinyl]-1H-benzimidazol-5-yl}-benzamide] | 82% | 310 nM |
| CS(=O)(=O)Nc1ccccc1-c1ccc2[nH]c(/C=C/c3ccc(-c4ccccc4)cc3)nc2c1 [Cpd 475, (E)-N-{2-[2-(2-biphenyl-4-yl-vinyl)-1H-benzimidazol-5-yl]-phenyl}-methanesulfonamide] | – | 77 nM |
| CC(C)(O)c1ccccc1-c1ccc2[nH]c(/C=C/c3ccccc3C(F)(F)F)nc2c1 [Cpd 482, (E)-2-(2-{2-[2-(2-trifluoromethyl-phenyl)-vinyl]-1H-benzimidazol-5-yl}-phenyl)-propan-2-ol] | 100% | 13 nM |
| NS(=O)(=O)c1ccccc1-c1ccc2[nH]c(/C=C/c3cccc(F)c3F)nc2c1 [Cpd 359, (E)-2-{2-[2-(2,3-difluoro-phenyl)-vinyl]-1H-benzimidazol-5-yl}-benzenesulfonamide] | 98% | 24 nM |
| CS(=O)(=O)Nc1ccccc1-c1ccc2[nH]c(/C=C/c3ccc(C(F)(F)F)c(F)c3)nc2c1 [Cpd 417, (E)-N-(2-{2-[2-(3-fluoro-4-trifluoromethyl-phenyl)-vinyl]-1H-benzimidazol-5-yl}-phenyl)-methanesulfonamide] | 100% | 11 nM |
| CNCc1ccccc1-c1ccc2[nH]c(/C=C/c3ccc(C(F)(F)F)cc3)nc2c1 [Cpd 485, (E)-methyl-(2-{2-[2-(4-trifluoromethyl-phenyl)-vinyl]-1H-benzimidazol-5-yl}-benzyl)-amine] | – | > 500 nM |
| CS(=O)(=O)Nc1ccccc1-c1cc2nc(/C=C/c3ccc(C(F)(F)F)cc3)[nH]c2cc1F [Cpd 65, (E)-N-(2-{6-fluoro-2-[2-(4-trifluoromethyl-phenyl)-vinyl]-1H-benzimidazol-5-yl}-phenyl)-methanesulfonamide] | 0% | – |
| NS(=O)(=O)c1ccccc1-c1ccc2[nH]c(CCc3ccc(F)cc3)nc2c1 [Cpd 420, 2-{2-[2-(4-fluoro-phenyl)-ethyl]-1H-benzimidazol-5-yl}-benzenesulfonamide] | 93% | 15 nM |
| CC(=O)c1ccc(/C=C/c2nc3cc(-c4ccccc4C(C)(C)O)ccc3[nH]2)cc1 [Cpd 448, (E)-1-[4-(2-{5-[2-(1-hydroxy-1-methyl-ethyl)-phenyl]-1H-benzimidazol-2-yl}-vinyl)-phenyl]-ethanone] | 99% | 17 nM |
| CNS(=O)(=O)c1ccccc1-c1ccc2[nH]c(/C=C/c3ccc(C#N)cc3)nc2c1 [Cpd 451, (E)-2-{2-[2-(4-cyano-phenyl)-vinyl]-1H-benzimidazol-5-yl}-N-methyl-benzenesulfonamide] | 101% | 28 nM |
| NS(=O)(=O)c1ccc(C(F)(F)F)cc1-c1ccc2[nH]c(/C=C/c3ccc(C(F)(F)F)cc3)nc2c1 [Cpd 444, (E)-4-trifluoromethyl-2-{2-[2-(4-trifluoromethyl-phenyl)-vinyl]-1H-benzimidazol-5-yl}-benzenesulfonamide] | 98% | 28 nM |
| CNS(=O)(=O)c1ccccc1-c1ccc2[nH]c(/C=C/c3c(F)cccc3Cl)nc2c1 [Cpd 336, (E)-2-{2-[2-(2-chloro-6-fluoro-phenyl)-vinyl]-1H-benzimidazol-5-yl}-N-methyl-benzenesulfonamide] | 89% | 240 nM |
| NS(=O)(=O)c1ccccc1-c1ccc2[nH]c(CCc3cc(F)ccc3F)nc2c1 [Cpd 395, 2-{2-[2-(2,5-difluoro-phenyl)-ethyl]-1H-benzimidazol-5-yl}-benzenesulfonamide] | 99% | 15 nM |

The remaining lines, values ahead:

| inhibition at 1 µM | IC50 | Compound |
| --- | --- | --- |
| 10% | – | Cc1cccc(-c2ccc3[nH]c(CCCc4ccc(C(C)(C)C)cc4)nc3c2)c1 [Cpd 30, 2-[3-(4-tert-butyl-phenyl)-propyl]-5-m-tolyl-1H-benzimidazole] |
| 98% | 10 nM | NS(=O)(=O)c1ccccc1-c1ccc2[nH]c(CCc3ccc(F)c(F)c3)nc2c1 [Cpd 393, 2-{2-[2-(3,4-difluoro-phenyl)-ethyl]-1H-benzimidazol-5-yl}-benzenesulfonamide] |
| 93% | 38 nM | NS(=O)(=O)c1ccccc1-c1ccc2[nH]c(CCc3ccccc3Cl)nc2c1 [Cpd 402, 2-{2-[2-(2-chloro-phenyl)-ethyl]-1H-benzimidazol-5-yl}-benzenesulfonamide] |
| 97% | 19 nM | CS(=O)(=O)c1ccccc1-c1ccc2[nH]c(C3CC3c3ccc(C(F)(F)F)cc3)nc2c1 (stereo not shown) [Cpd 500, 5-(2-methanesulfonyl-phenyl)-2-[2-(4-trifluoromethyl-phenyl)-cyclopropyl]-1H-benzimidazole] |
| – | > 500 nM | CC(C)(C)OC(=O)Nc1ccccc1-c1ccc2[nH]c(C3CC3c3ccc(C(F)(F)F)cc3)nc2c1 (stereo not shown) [Cpd 473, (2-{2-[2-(4-trifluoromethyl-phenyl)-cyclopropyl]-1H-benzimidazol-5-yl}-phenyl)-carbamic acid tert-butyl ester] |
| 96% | 7 nM | NS(=O)(=O)c1ccccc1-c1ccc2[nH]c(CCc3ccc(Cl)c(C(F)(F)F)c3)nc2c1 [Cpd 390, 2-{2-[2-(4-chloro-3-trifluoromethyl-phenyl)-ethyl]-1H-benzimidazol-5-yl}-benzenesulfonamide] |
| 95% | 22 nM | NS(=O)(=O)c1ccccc1-c1ccc2[nH]c([C@H]3C[C@@H]3c3ccc(C(F)(F)F)cc3)nc2c1 [Cpd 504, 2-{2-[(1S,2S)-2-(4-trifluoromethyl-phenyl)-cyclopropyl]-1H-benzimidazol-5-yl}-benzenesulfonamide] |
| 97% | 139 nM | CS(=O)(=O)c1cc(Cl)ccc1/C=C/c1nc2cc(-c3ccccc3S(N)(=O)=O)ccc2[nH]1 [Cpd 375, (E)-2-{2-[2-(4-chloro-2-methanesulfonyl-phenyl)-vinyl]-1H-benzimidazol-5-yl}-benzenesulfonamide] |
| 94% | 47 nM | NS(=O)(=O)c1ccccc1-c1ccc2[nH]c(CCc3ccc(F)cc3C(F)(F)F)nc2c1 [Cpd 404, 2-{2-[2-(4-fluoro-2-trifluoromethyl-phenyl)-ethyl]-1H-benzimidazol-5-yl}-benzenesulfonamide] |
| 101% | 11 nM | CNS(=O)(=O)c1ccccc1-c1ccc2[nH]c(/C=C/c3ccc(F)c(Br)c3)nc2c1 [Cpd 317, (E)-2-{2-[2-(3-bromo-4-fluoro-phenyl)-vinyl]-1H-benzimidazol-5-yl}-N-methyl-benzenesulfonamide] |
| 99% | 15 nM | NS(=O)(=O)c1ccccc1-c1ccc2[nH]c(/C=C/c3cccc(C(F)(F)F)c3F)nc2c1 [Cpd 368, (E)-2-{2-[2-(2-fluoro-3-trifluoromethyl-phenyl)-vinyl]-1H-benzimidazol-5-yl}-benzenesulfonamide] |
| 10% | – | CC(C)(C)c1ccc(/C=C/c2nc3cc(-c4ccc(C(N)=O)cc4)ccc3[nH]2)cc1 [Cpd 7, (E)-4-{2-[2-(4-tert-butyl-phenyl)-vinyl]-1H-benzimidazol-5-yl}-benzamide] |
| 100% | 6 nM | NS(=O)(=O)c1ccccc1-c1ccc2[nH]c(CCc3ccc(C(F)(F)F)cc3)nc2c1 [Cpd 130, 2-{2-[2-(4-trifluoromethyl-phenyl)-ethyl]-1H-benzimidazol-5-yl}-benzenesulfonamide] |
